Series [1] deals with actinic keratosis. The series can be described thus: Part 2 open-label trial, 0.018% gel once daily for three consecutive days, full face or 250 cm^2 chest, actinic keratosis. The note with it: 3 consecutive days. In kind it is in vivo, human subjects. As for the experimental part:
Part 2 is a study of the efficacy of the 0.018% dose identified in part 1 in a three day regimen.
In contrast to other similar trials conducted, this trial allows inclusion in the trial of hypertrophic and hyperkeratotic lesion, and separately, the efficacy for these lesions are evaluated.
The outcome for Part 2 is safety and efficacy in a once daily application for three consecutive days on the face/chest. The efficacy in treating of the AK will be measured as reduction in AK count in the treated area of lesions which are not considered hyperkeratotic/hypertrophic.
The reduction in AK count will be performed at week 4 and 8 no matter the type of lesion. Also complete clearance of AKs in the treated area which are not considered hyperkeratotic/hypertrophic at week 8 will be measured.
The trial medication applied is preferably a gel. The gel formulation comprises: isopropyl alcohol, hydroxyethyl cellulose, benzyl alcohol, citric acid monohydrate, sodium citrate dehydrate and water and active compound in a 0.018% concentration. For this particular trial, the dosing is two unit dose tubes daily, each containing 0.67 g.
To qualify for part 2 of the trial, the subjects must have 5-20 clinically visible and discrete AKs within full face or 250 cm^2 area on the chest. In addition to the requirement of 5-20 clinically typical, visible and discrete AKs within the selected treatment area, subjects may also have visible and discrete hyperkeratotic/hypertrophic lesions in this area. The subjects will be treated with a dose of 0.018% as a once daily three consecutive days treatment and followed for 8 weeks.
The trial consists of an initial part, where 18 subjects will be treated on face/chest. […] As this is a safety trial, it is considered justified to conduct this clinical trial as an open-label, uncontrolled trial. An early safety and tolerability evaluation will be performed following the 3 days treatment. If safety and tolerability is found acceptable by the Early Data Review Committee, and additional 44 subjects will be enrolled in order to expand safety observations and obtain an estimate of treatment efficacy.
The patients are scheduled for 7 visits: • Visit 1: within 21 days prior to day 1 • Visit 2: day 1 (application of trial medication) • Visit 3: day 4 (application of trial medication) • Visit 4: day 8 (±2 day) • Visit 5: week 2 (±2 day) • Visit 6: week 4 (±4 day) • Visit 7: week 8 (±7 day)
LSRs are evaluated at all visits following visit 1.
LSRs are evaluated at all visits following visit 1. AK lesion counts are performed on Visit 2, 6 and 7.
At Baseline (Day 1) and Visit 7 (Week 8), the investigator will make a clinical (visual and tactile) assessment of the extent of photo-damage in the treatment area with respect to 1) fine wrinkling, 2) coarse wrinkling, 3) mottled pigmentation, 4) roughness, 5) sallowness, 6) skin laxity, and 7) telangiectasia. Severity for each of these characteristics will be on a 5-point scale: None (0), Mild (1), Moderate (2), Severe (3), Extreme (4).
At Visit 7 (Week 8) the Investigator will make an overall clinical (visual and tactile) assessment of the subject's photo-damage change from baseline in the treatment area (including an integrated assessment of fine wrinkling, coarse wrinkling, mottled pigmentation, roughness, sallowness, skin laxity, and telangiectasia based on the subject's appearance at the baseline visit).
The scoring will be on a 7-point symmetric scale: Marked improvement (+3), Moderate improvement (+2), Minor improvement (+1), No change (0), Minor worsening (−1), Moderate worsening (−2), Marked worsening (−3).
At Visit 7 (Week 8), the subjects will complete a self-assessment questionnaire evaluating the change in the 1) overall appearance of the skin and 2) overall feel of the skin after treatment. The scoring will be on a 5-point scale: Much worsened, Somewhat worsened, No change, somewhat improved, much improved. […]

The next series deals with dermal tumours. In words: in vivo studies in mice, effects on dermal tumours. The following applies: compared with ingenol mebutate. The text has this:
The exact mechanism of action of ingenol 3-(3,5-diethylisoxazole-4-carboxylate) continues to be investigated, but it is believed that ingenol 3-(3,5-diethylisoxazole-4-carboxylate) has a dual mechanism of action inducing cell death as well as stimulation of immune response.

In series [2] the test system is actinic keratosis. In words: Part 1 dose escalation trial, once daily for two consecutive days, face/chest, actinic keratosis. In kind it is in vivo, human subjects. The text has this:
Local skin reactions (LSRs) occur sometimes in the treated area. Often LSRs are quantified by a scale evaluating the following types of skin reactions: erythema, flaking/scaling, crusting, swelling, vasiculation/postulation, and erosion/ulceration which are categorized into categories 0-4 depending on the severity of the reactions.
In the trial pre-defined grades of LSRs will constitute Dose Limiting Toxicity.
Dose Limiting toxicity (DLT) is defined one or more of the following LSRs • crusting Grade 4 • Erosion/ulceration Grade 4 • vesiculation/postulation Grade 4 or
Two or more of the following five LSRs: • Erythema Grade 4 • Crusting Grade 3 • Swelling grade 4 • Erosion/ulceration Grade 3 • vesiculation/postulation Grade 3 or • other clinically relevant signs or symptoms observed, which the Investigator judges to be counted as a DLT.
Maximum tolerated dose (MTD) is declared as dose level at which less than 4 subjects out of experience a DLT of cohort of 12 subjects.
Part 1 was a dose escalation study conducted with a once daily application of trial medication for two consecutive days and continued until the MTD was identified.
Dose escalation proceeded if the safety and tolerability data of the subject up to day 8 was reviewed and considered satisfactory. The treatment consisted of once daily treatment for 2 consecutive days. Up to 5 different doses may be investigated in cohorts of 1 subject. The number of subjects in each cohort depended on the number of observed DLTs. However, the MTD was always be confirmed in a cohort of 12 subjects.
To be included in the trial, Part 1, the subjects must be at least 18 years of age.
Subjects who qualify for Part 1 of the trial must have 5 to 20 actinic keratosis on the face or chest. To be included in the trial part 2 the subjects must have 5-20 clinically typical, visible and discrete actinic keratosis on the face or chest
Part 1: Trial medication, ingenol 3-(3,5-diethylisoxazole-4-carboxylate) gel, will be applied to the treatment area once daily for two consecutive days until the maximum tolerated dose has been reached for each formulation. Up to five different doses of active compound in gel may be investigated in cohorts 12 subjects. Predefined grades of Local Skin Responses (LSRs) will constitute dose limiting toxicity (DLT). The maximum tolerated dose is defined as the highest dose level at which less than 4 out of 12 subjects experience a Dose limiting toxicity.
The doses will be administered in an escalating manner following review of safety and tolerability data performed by the dose escalation committee. Evaluation of the safety and tolerability data will be performed after Visit 5/day 8. Then subjects will be followed for 8 weeks after first application of investigational product.

Where [3] appears, read: at 0.018% dose, two day regimen.

Take `CCc1noc(CC)c1C(=O)O[C@H]1C(C)=C[C@]23C(=O)[C@@H](C=C(CO)[C@@H](O)[C@]12O)[C@H]1[C@@H](C[C@H]3C)C1(C)C` [ingenol 3-(3,5-diethylisoxazole-4-carboxylate)]: in the series on actinic keratosis [1], the “cosmetic outcome of the treatment” value was “good” and the side-effects entry is recorded as “acceptable”. Further, in the series with actinic keratosis [1] (cosmetic outcome self-assessment), the “subjects reporting improvement in appearance and feel” value is given as “more than 90%”. Also, the “patients with photo damage improved” value in the series on actinic keratosis [1] (investigator assessment, fraction of patients) is listed as “two-thirds”. For the same molecule, the “time at which side-effects maximize” value in the series with actinic keratosis [1] (rapid decline thereafter) was found to be 4 days. In the series with actinic keratosis [1] (week 4, 63 patients), the complete clearance came to 37% and the “reduction in AK count” value is reported as 81%. Moreover, in the series on actinic keratosis [1] (week 8 (the same as week 4)), the complete clearance came out at 37% and the “reduction in AK count” value is 81%. The “efficacy in eliminating dermal tumours” value in the series on dermal tumours is recorded as “more efficacious than ingenol mebutate”. Also, in the series with actinic keratosis [2] (setting [3]), the “application site adverse events” value was “minimal” and the “local skin reactions (LSRs)” value is reported as “mild”. The “maximum tolerated dose (MTD)” value in the series with actinic keratosis [2] (gel, once daily for 2 consecutive days, face/chest, MTD = highest dose with DLT in less than 4 of 12 subjects) amounted to 0.018%. Besides, the “tolerability with respect to LSRs and application site reaction” value in the series on actinic keratosis [2] (selected dose 0.018%, two days dosing regimen) is on record as “well tolerated”.

(Values after patent US20170258770A1, “Method for Topically Treating Actinic Keratosis on the Full Face or 250 cm2 on the Chest with Ingenol 3-(3,5-diethylisoxazole-4-carboxylate)” (LEO Laboratories Limited, priority 2014, published 2017).)
